Tests used:
Test in all cases: Postemergence foliar-applied greenhouse weed control, direct-seeded rice system
[1] = tested on: IPOHE; format: in vivo, Ipomoea hederacea Jacq.
Excerpt: (§1) Seeds or nutlets of the desired test plant species were planted in a soil matrix prepared by mixing a loam or sandy loam soil (e.g., 28.6 percent silt, 18.8 percent clay, and 52.6 percent sand, with a pH of about 5.8 and an organic matter content of about 1.8 percent) and calcareous grit in an 80 to 20 ratio. The soil matrix was contained in plastic pots with a volume of 1 quart and a surface area of 83.6 square centimeters (cm^2). When required to ensure good germination and healthy plants, a fungicide treatment and/or other chemical or physical treatment was applied. The plants were grown for 8-22 days in a greenhouse with an approximate 14 h photoperiod which was maintained at about 29° C. during the day and 26° C. during the night. Nutrients (Peters Excel® 15-5-15 5-Ca 2-Mg and iron chelate) were applied in the irrigation solution as needed and water was added on a regular basis. Supplemental lighting was provided with overhead metal halide 1000-Watt lamps as necessary. The plants were employed for testing when they reached the first through fourth true leaf stage.
(§2) Treatments consisted of the acid or esters of 4-amino-3-chloro-5-fluoro-6-(4-chloro-2-fluoro-3-methoxy-phenyl)pyridine-2-carboxylic acid (Compound A), each formulated as an SC (suspension concentrate), and various herbicidal components alone and in combination. Forms of compound A were applied on an acid equivalent basis.
(§3) Other herbicidal components were applied on an active ingredient basis and included diamuron formulated as an EC (emulsifiable concentrate) and oxaziclomefone (technical grade material).
(§4) Treatment requirements were calculated based upon the rates being tested, the concentration of active ingredient or acid equivalent in the formulation, and a 12 mL application volume at a rate of 187 L/ha.
(§5) For treatments comprised of formulated compounds, measured amounts of compounds were placed individually in 25 mL glass vials and diluted in a volume of 1.25% (v/v) Agri-Dex® crop oil concentrated to obtain 12× stock solutions. […] Application solutions were prepared by adding an appropriate amount of each stock solution (e.g., 1 mL) and diluted to the appropriate final concentrations with the addition of 10 mL of an aqueous mixture of 1.25% (v/v) crop oil concentrate so that the final spray solutions contained 1.25+/−0.05% (v/v) crop oil concentrate.
(§6) For treatments comprised of technical compounds, weighed amounts can be placed individually in 25 mL glass vials and dissolved in a volume of 97:3 v/v acetone/DMSO to obtain 12× stock solutions. […] Application solutions can be prepared by adding an appropriate amount of each stock solution (e.g., 1 mL) and diluted to the appropriate final concentrations with the addition of 10 mL of an aqueous mixture of 1.5% (v/v) crop oil concentrate so that the final spray solutions contain 1.25% (v/v) crop oil concentrate. When technical materials are used, the concentrated stock solutions can be added to the spray solutions so that the final acetone and DMSO concentrations of the application solutions are 16.2% and 0.5%, respectively.
(§7) For treatments comprised of formulated and technical compounds, weighed amounts of the technical materials were placed individually in 25 mL glass vials and dissolved in a volume of 97:3 v/v acetone/DMSO to obtain 12× stock solutions, and measured amounts of the formulated compounds were placed individually in 25 mL glass vials and diluted in a volume of 1.5% (v/v) crop oil concentrate or water to obtain 12× stock solutions. […] Application solutions were prepared by adding an appropriate amount of each stock solution (e.g., 1 mL) and diluted to the appropriate final concentrations with the addition of an appropriate amount of an aqueous mixture of 1.5% (v/v) crop oil concentrate so that the final spray solutions contained 1.25% (v/v) crop oil concentrate. […]

[2] = tested on: BRAPP; format: in vivo
Excerpt: as §1, §2, §3, §4, §5, §6, §7

[3] = tested on: ECHCO; format: in vivo, Echinochloa colona (L.) Link
Excerpt: as §1, §2, §3, §4, §5, §6, §7

[4] = Compound A Benzyl Ester 4.38 gae/ha alone
[5] = Compound A Benzyl Ester 8.75 gae/ha alone

COc1c(Cl)ccc(-c2nc(C(=O)OCc3ccccc3)c(Cl)c(N)c2F)c1F [Compound A Benzyl Ester]
Visual Weed Control (%) - 20 DAA IPOHE Obs [1, 4]: 10%
Visual Weed Control (%) - 20 DAA IPOHE Obs [1, 5]: 25%
Visual Weed Control (%) - 20 DAA IPOHE Obs ([1]; Compound A Benzyl Ester 17.5 gae/ha alone): 50%
Visual Weed Control (%) - 20 DAA BRAPP Obs [2, 4]: 50%
Visual Weed Control (%) - 20 DAA BRAPP Obs [2, 5]: 70%
Visual Weed Control (%) - 20 DAA ECHCO Obs [3, 4]: 40%
Visual Weed Control (%) - 20 DAA ECHCO Obs [3, 5]: 90%

Reference: patent US8889591B2, “Herbicidal compositions comprising 4-amino-3-chloro-5-fluoro-6-(4-chloro-2-fluoro-3-methoxyphenyl)pyridine-2-carboxylic acid or a derivative thereof and bromobutide, daimuron, oxaziclomefone or pyributicarb” (Dow Agrosciences LLC, priority 2012, dated 2014)
